Measured values reported in PubChem BioAssay (NCI).
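Assay format: 96-well plates, 48-hour exposure. TGI denotes the concentration required for complete inhibition of growth.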

Legend:
Test in all cases: DTP human tumour cell line panel, 48 h
LOX IMVI melanoma = test system: LOX IMVI melanoma
MDA-MB-435 = test system: MDA-MB-435
SF-268 CNS = test system: SF-268 CNS
NCI/ADR-RES ovarian = test system: NCI/ADR-RES ovarian
SNB-75 CNS = test system: SNB-75 CNS
MALME-3M melanoma = test system: MALME-3M melanoma
RXF 393 renal = test system: RXF 393 renal
HS 578T breast = test system: HS 578T breast
SN12C renal = test system: SN12C renal
T-47D breast = test system: T-47D breast
SK-OV-3 ovarian = test system: SK-OV-3 ovarian
SK-MEL-2 melanoma = test system: SK-MEL-2 melanoma
OVCAR-4 ovarian = test system: OVCAR-4 ovarian
UACC-62 melanoma = test system: UACC-62 melanoma
ACHN renal = test system: ACHN renal
NCI-H226 lung = test system: NCI-H226 lung
SR leukemia = test system: SR leukemia
SK-MEL-28 melanoma = test system: SK-MEL-28 melanoma
UO-31 renal = test system: UO-31 renal
HOP-62 NSCLC = test system: HOP-62 NSCLC
BT-549 breast = test system: BT-549 breast
COLO 205 colon = test system: COLO 205 colon
U251 CNS = test system: U251 CNS
HOP-92 NSCLC = test system: HOP-92 NSCLC
CAKI-1 renal = test system: CAKI-1 renal
NCI-H23 lung = test system: NCI-H23 lung
EKVX NSCLC = test system: EKVX NSCLC
UACC-257 melanoma = test system: UACC-257 melanoma
HT29 colon = test system: HT29 colon
RPMI-8226 leukemia = test system: RPMI-8226 leukemia
M14 melanoma = test system: M14 melanoma
DU-145 prostate = test system: DU-145 prostate
OVCAR-3 ovarian = test system: OVCAR-3 ovarian
SNB-19 CNS = test system: SNB-19 CNS
SF-295 CNS = test system: SF-295 CNS
NCI-H460 lung = test system: NCI-H460 lung
K-562 leukemia = test system: K-562 leukemia
SK-MEL-5 melanoma = test system: SK-MEL-5 melanoma
SF-539 CNS = test system: SF-539 CNS
CCRF-CEM leukemia = test system: CCRF-CEM leukemia
HCT-15 colon = test system: HCT-15 colon
A549 NSCLC = test system: A549 NSCLC
OVCAR-5 ovarian = test system: OVCAR-5 ovarian
IGROV1 ovarian = test system: IGROV1 ovarian
HCT-116 colon = test system: HCT-116 colon
TK-10 renal = test system: TK-10 renal
HL-60(TB) leukemia = test system: HL-60(TB) leukemia
OVCAR-8 ovarian = test system: OVCAR-8 ovarian
786-0 renal = test system: 786-0 renal
MDA-MB-231 breast = test system: MDA-MB-231 breast
SW-620 colon = test system: SW-620 colon
KM12 colon = test system: KM12 colon
A498 renal = test system: A498 renal
PC-3 prostate = test system: PC-3 prostate
NCI-H522 lung = test system: NCI-H522 lung
MCF7 breast = test system: MCF7 breast

O=C(O)CNc1ccc2c(c1)Cc1cc(Br)ccc1-2
TGI (LOX IMVI melanoma): > 100 µM | TGI (MDA-MB-435): 45 µM | TGI (SF-268 CNS): > 100 µM | TGI (NCI/ADR-RES ovarian): > 63.3 µM | TGI (SNB-75 CNS): > 89.8 µM | TGI (MALME-3M melanoma): > 67.9 µM | TGI (RXF 393 renal): > 94.6 µM | TGI (HS 578T breast): 36.4 µM | TGI (SN12C renal): > 69.4 µM | TGI (T-47D breast): > 100 µM | TGI (SK-OV-3 ovarian): 98.5 µM | TGI (SK-MEL-2 melanoma): > 79 µM | TGI (OVCAR-4 ovarian): 87.2 µM | TGI (UACC-62 melanoma): 76.4 µM | TGI (ACHN renal): > 100 µM | TGI (NCI-H226 lung): > 79.3 µM | TGI (SR leukemia): 1.31 µM | TGI (SK-MEL-28 melanoma): > 100 µM | TGI (UO-31 renal): > 100 µM | TGI (HOP-62 NSCLC): > 67.8 µM | TGI (BT-549 breast): 58.6 µM | TGI (COLO 205 colon): > 71 µM | TGI (U251 CNS): 97 µM | TGI (HOP-92 NSCLC): > 90.7 µM | TGI (CAKI-1 renal): 98.4 µM | TGI (NCI-H23 lung): 49.3 µM | TGI (EKVX NSCLC): 49.7 µM | TGI (UACC-257 melanoma): 72.7 µM | TGI (HT29 colon): 97.4 µM | TGI (RPMI-8226 leukemia): > 95.5 µM | TGI (M14 melanoma): > 77.1 µM | TGI (DU-145 prostate): 82.4 µM | TGI (OVCAR-3 ovarian): > 100 µM | TGI (SNB-19 CNS): > 84.6 µM | TGI (SF-295 CNS): 97 µM | TGI (NCI-H460 lung): > 60.3 µM | TGI (K-562 leukemia): > 40.9 µM | TGI (SK-MEL-5 melanoma): 25.8 µM | TGI (SF-539 CNS): 58.4 µM | TGI (CCRF-CEM leukemia): > 100 µM | TGI (HCT-15 colon): > 100 µM | TGI (A549 NSCLC): > 81.3 µM | TGI (OVCAR-5 ovarian): > 73.1 µM | TGI (IGROV1 ovarian): > 100 µM | TGI (HCT-116 colon): > 49.1 µM | TGI (TK-10 renal): > 84.6 µM | TGI (HL-60(TB) leukemia): > 100 µM | TGI (OVCAR-8 ovarian): > 100 µM | TGI (786-0 renal): > 84.5 µM | TGI (MDA-MB-231 breast): > 68.9 µM | TGI (SW-620 colon): > 96.8 µM | TGI (KM12 colon): 50.7 µM | TGI (A498 renal): 85.8 µM | TGI (PC-3 prostate): > 100 µM | TGI (NCI-H522 lung): 56.8 µM | TGI (MCF7 breast): > 100 µM
